# Assay results from patent publication US8933018B2, “Boron containing polybasic bacterial efflux pump inhibitors and therapeutic uses thereof” (priority 2011, dated 2015).
# Test system: P. aeruginosa, PAM1723, overexpressing the MexAB-OprM efflux pump
# Type: cell-based, Pseudomonas aeruginosa
# Conditions: lowest EPI concentration giving antibacterial activity with levofloxacin at 1/8 of its MIC, MHB, 20 h at 35° C.
# Procedure: All EPI compounds were readily soluble in water and stock solutions were prepared at a final concentration of 10 mg/ml. Stock solutions were further diluted, according to the needs of the particular assay, in Mueller Hinton Broth (MHB). Stock solution was stored at […].
# The checkerboard assay was performed in microtiter plates. […] EPIs were diluted in the y-axis, each row containing a single concentration of an EPI. […] The assay was performed in MHB with a final bacterial inoculum of 5 times 10^5 CFU/ml (from an early-log phase culture). Microtiter plates were incubated during 20 h at 35° C. and were read using a microtiter plate reader (Molecular Devices) at 650 nm as well as visual observation using a microtiter plate-reading mirror.
row,Structure (SMILES),MPC8 (Minimum Potentiating Concentration)
1,"NCCN(CCN)C(=O)CC[C@H](N)C(=O)N[C@H](CCc1ccc(C(F)(F)F)cc1)C(=O)Nc1cc(B(O)O)ccc1F [Compound 25, 3-((R)-2-((S)-2-amino-5-(bis(2-aminoethyl)amino)-5-oxopentanamido)-4-(4-(trifluoromethyl)phenyl)butanamido)-4-fluorophenylboronic acid]",B (B = MPC8 of 2.5 μg/ml to less than 10 μg/mL.)
2,"CC1(C)OB(O)c2cc(NC(=O)[C@@H](CCc3ccc(C(F)(F)F)cc3)NC(=O)[C@@H](N)CCC(=O)N(CCN)CCN)ccc21 [Compound 26, (S)-2-amino-N5,N5-bis(2-aminoethyl)-N1-((R)-1-(1-hydroxy-3,3-dimethyl-1,3-dihydrobenzo[c][1,2]oxaborol-6-ylamino)-1-oxo-4-(4-(trifluoromethyl)phenyl)butan-2-yl)pentanediamide]",A (A = MPC8 of less than 2.5 μg/mL.)
3,"CC1(C)OB(O)c2cc(NC(=O)[C@@H](CCc3ccc(C(F)(F)F)cc3)NC(=O)[C@@H](N)CCC(=O)NCC(O)(CN)CN)ccc21 [Compound 27, (S)-2-amino-N5-(3-amino-2-(aminomethyl)-2-hydroxypropyl)-N1-((R)-1-(1-hydroxy-3,3-dimethyl-1,3-dihydrobenzo[c][1,2]oxaborol-6-ylamino)-1-oxo-4-(4-(trifluoromethyl)phenyl)butan-2-yl)pentanediamide]",B (B = MPC8 of 2.5 μg/ml to less than 10 μg/mL.)
4,"NCCN(CCN)C(=O)CC[C@H](N)C(=O)N[C@H](CCc1ccc(C(F)(F)F)cc1)C(=O)Nc1cc(B(O)O)cc(F)c1F [Compound 28, 3-((R)-2-((S)-2-amino-5-(bis(2-aminoethyl)amino)-5-oxopentanamido)-4-(4-(trifluoromethyl)phenyl)butanamido)-4,5-difluorophenylboronic acid]",A (A = MPC8 of less than 2.5 μg/mL.)
5,"NCCN(CCN)C(=O)CC[C@H](N)C(=O)N[C@H](CCc1ccc(C(F)(F)F)cc1)C(=O)Nc1ccc(B(O)O)c(F)c1 [Compound 29, 4-((R)-2-((S)-2-amino-5-(bis(2-aminoethyl)amino)-5-oxopentanamido)-4-(4-(trifluoromethyl)phenyl)butanamido)-2-fluorophenylboronic acid]",B (B = MPC8 of 2.5 μg/ml to less than 10 μg/mL.)
6,"NCCN(CCN)C(=O)CC[C@H](N)C(=O)N[C@H](CCc1ccc(C(F)(F)F)cc1)C(=O)Nc1cc(B(O)O)c(F)cc1F [Compound 30, 5-((R)-2-((S)-2-amino-5-(bis(2-aminoethyl)amino)-5-oxopentanamido)-4-(4-(trifluoromethyl)phenyl)butanamido)-2,4-difluorophenylboronic acid]",C (C = MPC8 of 10 μg/mL or greater.)
7,"NCCN(CCN)C(=O)CC[C@H](N)C(=O)N[C@H](CCc1ccc(C(F)(F)F)cc1)C(=O)Nc1cc2c(c(C(F)(F)F)c1)COB2O [Compound 31, (S)-2-amino-N5,N5-bis(2-aminoethyl)-N1-((R)-1-(1-hydroxy-4-(trifluoromethyl)-1,3-dihydrobenzo[c][1,2]oxaborol-6-ylamino)-1-oxo-4-(4-(trifluoromethyl)phenyl)butan-2-yl)pentanediamide]",B (B = MPC8 of 2.5 μg/ml to less than 10 μg/mL.)
8,"NCCN(CCN)C(=O)CC[C@H](N)C(=O)N[C@H](CCc1ccc(C(F)(F)F)cc1)C(=O)Nc1ccc(F)c(B(O)O)c1 [Compound 32, 5-((R)-2-((S)-2-amino-5-(bis(2-aminoethyl)amino)-5-oxopentanamido)-4-(4-(trifluoromethyl)phenyl)butanamido)-2-fluorophenylboronic acid]",B (B = MPC8 of 2.5 μg/ml to less than 10 μg/mL.)
9,"NCCN(CCN)C(=O)CC[C@H](N)C(=O)N[C@H](CCc1ccc(C(F)(F)F)cc1)C(=O)Nc1cc(F)cc(B(O)O)c1 [Compound 33, 3-((R)-2-((S)-2-amino-5-(bis(2-aminoethyl)amino)-5-oxopentanamido)-4-(4-(trifluoromethyl)phenyl)butanamido)-5-fluorophenylboronic acid]",A (A = MPC8 of less than 2.5 μg/mL.)
10,"NCCN(CCN)C(=O)CC[C@H](N)C(=O)N[C@H](CCc1ccc(C(F)(F)F)cc1)C(=O)Nc1cc(F)c(F)c(B(O)O)c1 [Compound 34, 5-((R)-2-((S)-2-amino-5-(bis(2-aminoethyl)amino)-5-oxopentanamido)-4-(4-(trifluoromethyl)phenyl)butanamido)-2,3-difluorophenylboronic acid]",C (C = MPC8 of 10 μg/mL or greater.)
11,"NCCN(CCN)C(=O)CC[C@H](N)C(=O)N[C@H](CCc1ccc(C(F)(F)F)cc1)C(=O)Nc1ccc(B(O)O)cc1F [Compound 35, 4-((R)-2-((S)-2-amino-5-(bis(2-aminoethyl)amino)-5-oxopentanamido)-4-(4-(trifluoromethyl)phenyl)butanamido)-3-fluorophenylboronic acid]",B (B = MPC8 of 2.5 μg/ml to less than 10 μg/mL.)
12,"NCCN(CCN)C(=O)CC[C@H](N)C(=O)N[C@H](CCc1ccc(C(F)(F)F)cc1)C(=O)NC[C@@H]1OB(O)c2ccccc21 [Compound 37, (S)-2-amino-N5,N5-bis(2-aminoethyl)-N1-((R)-1-(((R)-1-hydroxy-1,3-dihydrobenzo[c][1,2]oxaborol-3-yl)methylamino)-1-oxo-4-(4-(trifluoromethyl)phenyl)butan-2-yl)pentanediamide]",A (A = MPC8 of less than 2.5 μg/mL.)
13,"CC1(C)OB(O)c2cc(NC(=O)[C@@H](CCc3ccc(C(F)(F)F)cc3)NC(=O)[C@@H](N)CCC(=O)N[C@@H]3C[C@H](N)C[C@H](N)C3)ccc21 [Compound 38, (S)-2-amino-N5-((1s,3R,5S)-3,5-diaminocyclohexyl)-N1-((R)-1-(1-hydroxy-3,3-dimethyl-1,3-dihydrobenzo[c][1,2]oxaborol-6-ylamino)-1-oxo-4-(4-(trifluoromethyl)phenyl)butan-2-yl)pentanediamide]",A (A = MPC8 of less than 2.5 μg/mL.)
14,"CC1(C)OB(O)c2cc(NC(=O)[C@@H](CCc3ccc(C(F)(F)F)cc3)NC(=O)[C@@H](N)CCC(=O)NC(CN)CN)ccc21 [Compound 39, (S)-2-amino-N^5-(1,3-diaminopropan-2-yl)-N^1-((R)-1-(1-hydroxy-3,3-dimethyl-1,3-dihydrobenzo[c][1,2]oxaborol-6-ylamino)-1-oxo-4-(4-(trifluoromethyl)phenyl)butan-2-yl)pentanediamide]",A (A = MPC8 of less than 2.5 μg/mL.)
15,"CC1(C)OB(O)c2cc(NC(=O)[C@@H](CCc3ccc(C(F)(F)F)cc3)NC(=O)[C@@H](N)CCC(=O)N(C[C@@H](O)CN)C[C@@H](O)CN)ccc21 [Compound 40, (S)-2-amino-N^5,N^5-bis((S)-3-amino-2-hydroxypropyl)-N^1-((R)-1-(1-hydroxy-3,3-dimethyl-1,3-dihydrobenzo[c][1,2]oxaborol-6-ylamino)-1-oxo-4-(4-(trifluoromethyl)phenyl)butan-2-yl)pentanediamide]",B (B = MPC8 of 2.5 μg/ml to less than 10 μg/mL.)
16,"CC1(C)OB(O)c2cc(NC(=O)[C@@H](CCc3ccc(C(F)(F)F)cc3)NC(=O)[C@@H](N)CCC(=O)N3C[C@@H](N)C[C@H]3CN)ccc21 [Compound 41, (S)-2-amino-5-((2S,4S)-4-amino-2-(aminomethyl)pyrrolidin-1-yl)-N-((R)-1-(1-hydroxy-3,3-dimethyl-1,3-dihydrobenzo[c][1,2]oxaborol-6-ylamino)-1-oxo-4-(4-(trifluoromethyl)phenyl)butan-2-yl)-5-oxopentanamide]",B (B = MPC8 of 2.5 μg/ml to less than 10 μg/mL.)
17,"CC1(C)OB(O)c2cc(NC(=O)[C@@H](CCc3ccc(C(F)(F)F)cc3)NC(=O)[C@@H](N)CCC(=O)N3C4CCC3[C@H](CN)[C@@H]4CN)ccc21 [Compound 42, (2S)-2-amino-5-((2R,3S)-2,3-bis(aminomethyl)-7-azabicyclo[2.2.1]heptan-7-yl)-N-((R)-1-(1-hydroxy-3,3-dimethyl-1,3-dihydrobenzo[c][1,2]oxaborol-6-ylamino)-1-oxo-4-(4-(trifluoromethyl)phenyl)butan-2-yl)-5-oxopentanamide]",A (A = MPC8 of less than 2.5 μg/mL.)
18,"NCCN(CCN)C(=O)CC[C@H](N)C(=O)N[C@H](Cc1ccc(C(F)(F)F)cc1)C(=O)Nc1cnc2ccc(B(O)O)cc2c1 [Compound 43, 3-((R)-2-((S)-2-amino-5-(bis(2-aminoethyl)amino)-5-oxopentanamido)-3-(4-(trifluoromethyl)phenyl)propanamido)quinolin-6-ylboronic acid]",B (B = MPC8 of 2.5 μg/ml to less than 10 μg/mL.)
19,"NCCN(CCN)C(=O)CC[C@H](N)C(=O)N[C@H](CCc1ccc(C(F)(F)F)cc1)C(=O)Nc1cnc2ccc(B(O)O)cc2c1 [Compound 44, 3-((R)-2-((S)-2-amino-5-(bis(2-aminoethyl)amino)-5-oxopentanamido)-4-(4-(trifluoromethyl)phenyl)butanamido)quinolin-6-ylboronic acid]",A (A = MPC8 of less than 2.5 μg/mL.)
20,"N[C@@H]1C[C@H](N)C[C@H](NC(=O)CC[C@H](N)C(=O)N[C@H](CCc2ccc(C(F)(F)F)cc2)C(=O)Nc2ccc3c(c2)B(O)OC3)C1 [Compound 66, (S)-2-amino-N^5-((1s,3R,5S)-3,5-diaminocyclohexyl)-N^1-((R)-1-(1-hydroxy-1,3-dihydrobenzo[c][1,2]oxaborol-6-ylamino)-1-oxo-4-(4-(trifluoromethyl)phenyl)butan-2-yl)pentanediamide]",B (B = MPC8 of 2.5 μg/ml to less than 10 μg/mL.)
